# Source: patent US20230181684A1, “NOVEL ANTIBIOTIC COMPOSITIONS AND METHODS OF MAKING OR USING THE SAME” (priority 2020, published 2023)
# Numbered stars: 1 amine (or outer) side, 2 acyl side, 3 side chain; on linkers, the order of the positions; unused ones are H or OH. Bridge positions count the residues as written; N and C are the ends. Square brackets hold non-standard residues; d marks the D form. Peptide text beside a SMILES is read from it. * marks the point of attachment. Hpg(αMan(1-2)αMan) = N[C@H](C(=O)O)c1ccc(O[C@H]2O[C@H](CO)[C@@H](O)[C@H](O)[C@@H]2O[C@H]2O[C@H](CO)[C@@H](O)[C@H](O)[C@@H]2O)cc1; Octa(2Z,4E)dienoyl(7-Me) = CC(C)C/C=C/C=C\C(=O)*; X1 = NC(=O)[C@@H](O[*:3])[C@H](N[*:1])C(=O)[*:2]; X3 = O=C([C@@H](N[*:1])c1cc(O)cc(O)c1)[*:2]; Hpg(3-Cl) = N[C@H](C(=O)O)c1ccc(O)c(Cl)c1; d(aThr) = C[C@@H](O)[C@@H](N)C(=O)O; dHpg = N[C@@H](C(=O)O)c1ccc(O)cc1; Hpg = N[C@H](C(=O)O)c1ccc(O)cc1; aThr = C[C@H](O)[C@H](N)C(=O)O; dOrn = NCCC[C@@H](N)C(=O)O; X2 = CC(C)CCCCCCC(=O)*
# Columns and labels:
# E. coli ATCC 25922 = system: E. coli ATCC 25922
# Procedure: (§1) Assessment of antimicrobial activity of chersinamycin: Chersinamycin was examined for its ability to inhibit bacterial growth by broth microdilution assays against Gram-positive strains B. subtilis ATCC 6051, S. aureus ATCC 25923, and E. faecalis ATCC 29212 and Gram-negative strain E. coli ATCC 25922.
# (§2) Minimal inhibitory assays. Antibacterial activity of chersinamycin and positive controls (vancomycin, ampicillin, and ramoplanin A2) were determined by the broth microdilution assay method. Briefly, bacterial strains were grown in cation-adjusted Mueller-Hinton broth. A microtiter plate was prepared by coating wells in 0.2% BSA, and antimicrobial peptides were added with 2-fold dilution steps ranging from 64-0.125 μg mL^−1. Bacteria was added to a final concentration of 10^5 colony forming units and final volume of 100 μL. Plates were incubated at 37° C. for 24 hours, and the MIC was read as the lowest peptide concentration for which no bacterial growth was visualized. Reported values are the average of two replicates.
# Gram-positive strains = assay: Broth microdilution, Gram-positive strains overall; type: cell-based; settings: Gram-positive strains B. subtilis ATCC 6051, S. aureus ATCC 25923, E. faecalis ATCC 29212
# Procedure: as §1, §2
# [1] = 1% triethylamine in water, room temperature
# Description: Macrolactone selective hydrolysis. […] The solution was allowed to sit at room temperature for one hour, and then analyzed by MALDI-TOF. After determining that the reaction had gone to completion by complete consumption of the starting material, the reaction mixture was dried and reconstituted in a water/acetonitrile mixture for further MS/MS analyses.
# B. subtilis ATCC 6051 = settings: ATCC 6051, 24 h
# Procedure: as §1, §2
# E. faecalis ATCC 29212 = settings: ATCC 29212, 24 h
# Procedure: as §1, §2
# S. aureus ATCC 25923 = settings: ATCC 25923, 24 h
# Procedure: as §1, §2
# [2] = system: vancomycin-susceptible and vancomycin-resistant C. difficile strains; settings: cited from earlier work
# [3] = system: Gram-positive bacterial infections; settings: cited from earlier work
# [4] = cited from earlier work
# [5] = delivered intravenously; cited from earlier work
# [6] = administered by intraperitoneal injection; cited from earlier work
# [7] = Boger alanine scan comparators; cited from earlier work
compound,measurement,setting,value
"CC(C)CCCCCCC(=O)N[C@@H](CC(N)=O)C(=O)N[C@@H]1C(=O)N[C@H](c2ccc(O)cc2)C(=O)N[C@H](CCCN)C(=O)N[C@H]([C@@H](C)O)C(=O)N[C@@H](c2ccc(O)cc2)C(=O)N[C@H](c2ccc(O)cc2)C(=O)N[C@@H]([C@H](C)O)C(=O)N[C@@H](Cc2ccccc2)C(=O)N[C@H](CCCN)C(=O)N[C@@H](c2ccc(O[C@H]3O[C@H](CO)[C@@H](O)[C@H](O)[C@@H]3O[C@H]3O[C@H](CO)[C@@H](O)[C@H](O)[C@@H]3O)cc2)C(=O)N[C@H]([C@@H](C)O)C(=O)N[C@@H](c2cc(O)cc(O)c2)C(=O)NCC(=O)N[C@@H](C(C)C)C(=O)N[C@H](C)C(=O)N[C@@H](c2ccc(O)c(Cl)c2)C(=O)O[C@@H]1C(N)=O [Chersinamycin, chersinamycin] (X2-N[X1][dHpg][dOrn][d(aThr)][Hpg][dHpg][aThr]F[dOrn][Hpg(αMan(1-2)αMan)][d(aThr)][X3]GV[dA][Hpg(3-Cl)]; ester 2-C; N-terminus assumed)","ability to inhibit bacterial growth, in words",E. coli ATCC 25922; Gram-negative strain E. coli ATCC 25922,ineffective
same,"ability to inhibit bacterial growth, in words",Gram-positive strains,potent antimicrobial activity
same,stability of peptide macrocycle to base,[1],highly base labile
"CC(C)C/C=C/C=C\C(=O)N[C@@H](CC(N)=O)C(=O)N[C@@H]1C(=O)N[C@H](c2ccc(O)cc2)C(=O)N[C@H](CCCN)C(=O)N[C@H]([C@@H](C)O)C(=O)N[C@@H](c2ccc(O)cc2)C(=O)N[C@H](c2ccc(O)cc2)C(=O)N[C@@H]([C@H](C)O)C(=O)N[C@@H](Cc2ccccc2)C(=O)N[C@H](CCCN)C(=O)N[C@@H](c2ccc(O[C@H]3O[C@H](CO)[C@@H](O)[C@H](O)[C@@H]3O[C@H]3O[C@H](CO)[C@@H](O)[C@H](O)[C@@H]3O)cc2)C(=O)N[C@H]([C@@H](C)O)C(=O)N[C@@H](c2ccc(O)cc2)C(=O)NCC(=O)N[C@@H](CC(C)C)C(=O)N[C@H](C)C(=O)N[C@@H](c2ccc(O)c(Cl)c2)C(=O)O[C@@H]1C(N)=O [Ramoplanin, ramoplanin A2] ({Octa(2Z,4E)dienoyl(7-Me)}-N[X1][dHpg][dOrn][d(aThr)][Hpg][dHpg][aThr]F[dOrn][Hpg(αMan(1-2)αMan)][d(aThr)][Hpg]GL[dA][Hpg(3-Cl)]; ester 2-C)",MIC,B. subtilis ATCC 6051,<0.125 µg/mL
same,MIC,"E. coli ATCC 25922; ATCC 25922, 24 h",>64 µg/mL
same,MIC,E. faecalis ATCC 29212,0.5 µg/mL
same,MIC,S. aureus ATCC 25923,0.5 µg/mL
same,MICs in vitro against C. difficile,[2],0.25 to 0.50 µg/mL
same,MICs in vitro,[3],0.125 to 2 µg/mL
same,oral absorption,"[4]; in vivo, po",not orally absorbed
same,colonic concentrations,[4]; oral delivery,> 300 µg/mL
same,hemolysis,[5],mild to moderately hemolytic
same,stability of macrolactone,[6],susceptible to hydrolysis
[Dap2]-ramoplanin A2 aglycon [[Dap2]-ramoplanin aglycon],MIC,[7],0.07 µg/mL
ramoplanin A2 aglycon,MIC,[7],0.11 µg/mL
